Data from ChEMBL document CHEMBL3639238, “Hybrid cholinesterase inhibitors” (2014).

Experiments:
Cholinesterase = Cholinesterase (Homo sapiens, UniProt P06276); assay: (§1) Inhibition Assay: The biological activity of the compounds of general formula (I) towards the cholinesterase inhibition was evaluated using Ellman's method (Ellman, G. L.; Courtney, K. D.; Anders, B.; Featherstone, R. M. Biochem. Pharmacol. 1961, 7, 88-95).This method of evaluation of the cholinesterase inhibitors activity is based on the fact that acetyl/butyrylcholinesterase interacts with the inhibitor, which prevents the acetyl/butyrylcholine hydrolysis. The inhibitor causes the enzyme activity drop which is dependent on the inhibitor concentration. The enzyme unbound with the inhibitor is able to hydrolyze acetyl/butyrylthiocholine (ASCh/BSCh). The amount of the hydrolyzed ASCh/BSCh is measured indirectly, by quantification of the product of its reaction with DTNB (5,5â²-dithio-bis-2-nitrobenzoic acid). Ellman's method relies therefore on the spectrophotometric quantification of product of the reaction between […] and DTNB.
Sequence of Cholinesterase (P06276 whole entry): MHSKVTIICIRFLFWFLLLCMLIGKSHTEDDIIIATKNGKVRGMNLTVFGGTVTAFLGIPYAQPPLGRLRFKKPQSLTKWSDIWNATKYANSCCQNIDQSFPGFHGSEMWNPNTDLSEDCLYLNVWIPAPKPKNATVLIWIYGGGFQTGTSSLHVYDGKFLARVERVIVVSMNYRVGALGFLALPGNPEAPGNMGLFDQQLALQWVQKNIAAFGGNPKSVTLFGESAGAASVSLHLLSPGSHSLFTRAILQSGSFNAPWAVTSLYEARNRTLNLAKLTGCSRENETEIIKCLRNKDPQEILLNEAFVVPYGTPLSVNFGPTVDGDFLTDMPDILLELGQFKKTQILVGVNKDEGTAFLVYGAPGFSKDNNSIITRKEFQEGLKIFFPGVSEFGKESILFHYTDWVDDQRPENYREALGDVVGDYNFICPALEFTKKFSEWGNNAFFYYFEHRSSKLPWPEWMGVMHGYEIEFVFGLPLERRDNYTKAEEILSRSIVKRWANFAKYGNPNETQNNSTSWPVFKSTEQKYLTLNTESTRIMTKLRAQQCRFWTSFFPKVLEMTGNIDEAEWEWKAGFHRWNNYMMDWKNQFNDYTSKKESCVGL

Acetylcholinesterase = Acetylcholinesterase (Homo sapiens, UniProt P22303); assay: as §1
Sequence of Acetylcholinesterase (P22303 whole entry): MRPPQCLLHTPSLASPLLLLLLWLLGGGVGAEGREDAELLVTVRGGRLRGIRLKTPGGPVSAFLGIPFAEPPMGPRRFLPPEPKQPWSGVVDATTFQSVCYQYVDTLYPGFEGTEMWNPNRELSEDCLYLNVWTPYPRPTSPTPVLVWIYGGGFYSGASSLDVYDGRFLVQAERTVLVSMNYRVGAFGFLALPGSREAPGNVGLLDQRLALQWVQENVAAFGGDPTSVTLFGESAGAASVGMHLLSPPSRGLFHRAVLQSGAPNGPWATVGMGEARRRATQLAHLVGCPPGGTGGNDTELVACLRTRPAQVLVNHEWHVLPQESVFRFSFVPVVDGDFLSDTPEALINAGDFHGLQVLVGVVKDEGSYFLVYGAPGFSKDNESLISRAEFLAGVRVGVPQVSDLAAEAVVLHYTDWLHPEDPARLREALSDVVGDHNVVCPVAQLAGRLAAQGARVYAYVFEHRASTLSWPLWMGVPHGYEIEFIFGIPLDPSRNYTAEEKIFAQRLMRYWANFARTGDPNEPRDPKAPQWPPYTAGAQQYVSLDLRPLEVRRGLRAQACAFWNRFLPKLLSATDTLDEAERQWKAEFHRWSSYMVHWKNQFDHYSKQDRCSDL

`CC(=O)NCCc1c[nH]c2ccc(OC(=O)NCCCCCCCNc3c4c(nc5cc(Cl)ccc35)CCCC4)cc12` was tested, and the IC50 (Cholinesterase) was 0.38 nM and the IC50 (Acetylcholinesterase) was 7.7 nM.

`CC(=O)NCCc1c[nH]c2ccc(OC(=O)NCCNc3c4c(nc5cc(Cl)ccc35)CCCC4)cc12` gave an IC50 (Cholinesterase) of 34.5 nM and an IC50 (Acetylcholinesterase) of 20.1 nM.

`CC(=O)NCCc1c[nH]c2ccc(OC(=O)NCCCCCCCNc3c4c(nc5ccc(Cl)cc35)CCCC4)cc12` was tested, and the IC50 (Cholinesterase) was 0.88 nM and the IC50 (Acetylcholinesterase) was 39.9 nM.

`CC(=O)NCCc1c[nH]c2ccc(OC(=O)NCCNc3c4c(nc5ccc(Cl)cc35)CCCC4)cc12` was tested, and the IC50 (Cholinesterase) was 8.2 nM and the IC50 (Acetylcholinesterase) was 3280 nM.

Work on `CC(=O)NCCc1c[nH]c2ccc(OC(=O)NCCCCCCCCCCNc3c4c(nc5cc(Cl)ccc35)CCCC4)cc12` yielded an IC50 (Cholinesterase) of 1.2 nM and an IC50 (Acetylcholinesterase) of 8.1 nM.

Molecule `CC(=O)NCCc1c[nH]c2ccc(OC(=O)NCCCCCCCCCCCCNc3c4c(nc5cc(Cl)ccc35)CCCC4)cc12` has an IC50 (Cholinesterase) of 1.31 nM and an IC50 (Acetylcholinesterase) of 25.6 nM.
